Patent publication US12053441B2, “Formulations for improving the delivery of hydrophobic agents” (THE ROYAL INSTITUTION FOR THE ADVANCEMENT OF LEARNING / …, priority 2018, dated 2024)
One block for each compound: values may come before it. Starred links: 1 amine or outer side, 2 acyl side, 3 side chain; linkers in the order of their positions; H or OH if unused. Positions of bridges follow the written chain, without caps; N, C: chain ends. Non-standard residues stand in square brackets, D forms with d. Residues, ends and D or L forms follow the SMILES beside them. *: point of attachment. hTyr(3S-OH,4S-OH,3'-OSO3H) = N[C@H](C(=O)O)[C@H](O)[C@@H](O)c1ccc(O)c(OS(=O)(=O)O)c1; pTerphenylCO(4''-OnC5H11) = CCCCCOc1ccc(-c2ccc(-c3ccc(C(=O)*)cc3)cc2)cc1; Orn(4R-OH,5R-OH) = O=C([C@H](C[C@@H](O)[C@@H](O)N[*:3])N[*:1])[*:2]; hTyr(3S-OH,4S-OH) = N[C@H](C(=O)O)[C@H](O)[C@@H](O)c1ccc(O)cc1; Pro(3S-OH,4S-Me) = C[C@H]1CN[C@H](C(=O)O)[C@H]1O; X2 = CCCCCOc1ccc(-c2cc(-c3ccc(C(=O)*)cc3)no2)cc1; Gln(3R-OH) = NC(=O)C[C@@H](O)[C@H](N)C(=O)O; Hyp = O=C(O)[C@@H]1C[C@@H](O)CN1

What was measured:
Mclk1 KO cells = test: Viability in glucose-free galactose-containing medium (resazurin reduction assay); assay type: cell-based, mouse; conditions: sufficiently high dose (FIG. 3A)
Protocol: Tissue culture and viability assays. […] To score growth and viability in galactose, cells were first grown in high glucose DMEM medium to confluency and then switched to glucose-free DMEM media (Thermo Fisher Cat No 26400036) supplemented with 10 mM galactose (Sigma Cat No G5388), 1 mM sodium pyruvate (Thermo Fisher Cat No 11360070), 10% dialyzed FBS (Thermo Fisher Cat No 26400036) and 1% antibiotic-antimycotic solution. Cell viability was determined by resazurin (Sigma Cat No R7017) reduction assay or crystal violet staining following standard procedures.
The screen uses cells lacking UQ (e.g., Mclk1 KO cells) and consists of three key steps: • 1) Day 0: preparation of Mclk1 KO cells in 96-well plates in standard (glucose-containing) culture medium. • 2) Day 1: changing to glucose-free galactose-containing medium and adding compounds to be screened at a concentration of approximately 10 μM. • 3) Day 4 to 6: following 3 to 5 days of incubation with the compound to be screened, media were removed and cell viability was assayed by resazurin reduction assay.
(§1) The resazurin cell viability assay. Briefly, resazurin was added directly to plates at 1/10 the volume of glucose culture medium. Viable cells with active metabolism can reduce resazurin into resorufin which causes a colour change from blue to pink. After a 2 hr incubation, plates were read on a plate reader (Tecan) to record absorbance at 570 nm and 600 nm. The cell viability was scored as a percentage relative to the signal from untreated glucose-grown wells. Consequently, each screened compound may be described by its effect (no, partial or full rescue) on survival of the KO cells in galactose medium.

[1] = Drop collapse assay (surfactant activity); assay type: physicochemical
Protocol: Drop collapse assay is a simple detection method of surface active agents. It relies on the capacity of surfactants to destabilize the liquid droplets on an oily surface. The drop-collapsing ability of McC1 along with other known potent surfactants was characterized. For each, 40 ul of compound solution in water was pipetted onto a hydrophobic Parafilm surface and the diameter of the drops was measured 1 min later using a ruler.

wildtype MEFs = test: Cellular UQ10 levels (quinone quantification by HPLC); assay type: cell-based, mouse; conditions: for cellular uptake of exogenous UQ10: in combination with UQ10, vs UQ10 alone
Protocol: (§2) Quantification of quinones. Quinone content was detected and quantified by HPLC as previously described. […] After centrifugation for 5 min at 8,000×g, the hexane layer was collected and evaporated in a vacuum centrifuge. The quinone residue was then dissolved in ethanol and stored at −20° C. until HPLC analysis. The HPLC analysis was performed on a reverse phase C18 column (25.0×0.46 cm, 5 μm, Highchrom) using UV detection at 275 nm (Beckman System Gold). The mobile phase was methanol/ethanol (70:30 v/v) and isocratic elution was used at a flow rate of 1.8 ml/min.

cells = test: Cellular UQ measurements after treatment with micellar UQ10 solutions (FIG. 22); assay type: cell-based; conditions: UQ10 solution prepared with the surfactant, 6 μM UQ10, 1-day
From the text: UQ levels are expressed as ng per mg of protein (mean±SEM). Each bar represents the average of 2 to 3 independent measurements. […] ND: not detected. #p<0.0001 (vs. untreated controls; two-way ANOVA followed by Dunnett's multiple comparison test).

Pdss2/Mclk1 DKO cells [2] = test: Viability in glucose-free galactose-containing medium (resazurin reduction assay); assay type: cell-based, mouse
Protocol: Tissue culture and viability assays. […] Cell viability was determined by resazurin (Sigma Cat No R7017) reduction assay or crystal violet staining following standard procedures.
as §1
The screen also uses cells lacking UQ biosynthesis (e.g., DKO cells) and its protocol is essentially the same as the galactose-only screen except that in step 2, a minimal amount of UQ10 is added into the galactose screening media at a concentration at which the added UQ10 is insufficient by itself to support survival.

[3] = tested on: mitochondria of wild-type MEFs; test: UQ levels in mitochondrial extracts; assay type: cell-based, mouse
From the text: FIGS. 7A to 7D present exemplary data showing that McC1 is capable of increasing the uptake of exogenous UQ into cells and mitochondria. (A) Bar chart showing change of UQ10 levels (as measured in ng/μg of protein) in Pdss2/Mclk1 DKO MEFs after treatment with UQ10, McC1 alone, or UQ10 and McC1 in combination. **p<0.01, ***p<0.001 (one-way ANOVA). (B) Bar charts presenting exemplary data showing changes of UQ levels in wildtype MEFs after treatment with UQ10, McC1 alone, or both in combination. Results are shown as cellular UQ10 levels (as provided in ng/μg of protein, left panel) or UQ9 levels (as provided in ng/μg of protein, right panel) in untreated cells, after treatment with 12.5 μM of McC1, after treatment with 2.5 μM of UQ10, or after co-treatment UQ10 and McC1. Results are mean±SEM (n=3). ****p<0.0001 (one-way ANOVA). (C) Bar chart presenting exemplary data showing changes of UQ10 and UQ9 levels in mitochondrial extracts from wildtype MEFs after treatment with UQ10 alone, or in combination with McC1. Results are shown as UQ9 and UQ10 levels in ng/μg of protein. Results are mean±SEM (n=3). ****p<0.0001 (student's t-test). (D) Bar chart presenting exemplary data showing changes of UQ10 level in mitochondrial extracts from Pdss2/Mclk1 DKO MEFs after treatment with UQ10 alone, or in combination with McC1. Results are shown as UQ10 levels (as provided in ng/μg of protein) in untreated DKO cells, after treatment with 2.5 μM of UQ10, or after co-treatment 2.5 μM of UQ10 and 12.5 μM of McC1. ND: Not Detectable. Results are mean±SEM (n=3). ****p<0.0001 (one-way ANOVA).
as §2

Pdss2/Mclk1 DKO cells [4] = test: Oxygen consumption rate (OCR) by Seahorse XF analyzer; assay type: cell-based, mouse; conditions: co-treatment with UQ10
Protocol: Measurement of oxygen consumption by Seaborse XF analyzer. Cells were seeded in XF v7 24-well plates (Seahorse Bioscience) at ˜40,000 cells/well for 24 hr. Prior to the measurements, cell medium was replaced with Seahorse XF base medium supplemented with 5.5 mM glucose (Sigma Cat No G8769), 2 mM Glutamax (Thermo Fisher Cat No 35050061) and 1 mM sodium pyruvate and allowed to equilibrate for 1 hour at 37° C. Oxygen consumption was measured first under baseline condition, followed by subsequent addition of 1 μg/ml oligomycin (Sigma Cat No 04876), 0.8 μM FCCP (Sigma Cat No C2920) and a combination of 1 μM rotenone (Sigma Cat No R8875) and 5 μM antimycin A (Sigma Cat No A8674) to assess the basal and maximal mitochondrial respiration rates. Four baseline measurements were recorded before the consecutive addition of the above-mentioned compounds, and three response measurements were taken after the addition of each compound. Results were finally normalized to protein content determined using the Bradford reagent (Bio-Rad). For experiments that involved culturing cells in the presence of lipoprotein-deficient serum (LPDS), cells were grown in culture medium supplemented with LPDS (Sigma S5394) for 1 week before OCR was measured using a Seahorse XF-24 extracellular flux analyzer as described above.

[5] = Protocol: Solubilization studies. In order to link the surfactant properties of McC1 and its stimulating impact on UQ10 uptake, the solubilization characteristics of McC1 on UQ10 have been determined. First, solubilization test was performed by overnight shaking of a mixture of UQ10 and McC1 in water.
Additional solubilization tests were performed using sonication. Excess amount of UQ10 was mixed with McC1 by sonication for 2 min in water.
Like caspofungin/McC1, surfactin is a cyclic lipopeptide. It is produced from various strains of Bacillus subtilis. Structurally it consists of a peptide chain formed by seven amino acids linked to a β-hydroxyl fatty acid via a lactone bond. It is known for its exceptional surfactant power. […] Then, solubilization test was performed by overnight shaking of a mixture of UQ10 and surfactin in water. The mixture were subjected to brief centrifugation to separate undissolved UQ10 before absorbance of the resultant clear supernatant at 275 nm was measured spectrophotometrically.
Several other surfactants were tested for their ability to solubilize UQ. Briefly, excess amount of UQ10 was mixed with water solution of the tested surfactants using sonication. The resultant suspensions were then filtered through a 0.45 μm syringe filter to remove undissolved UQ10.

Pdss2/Mclk1 DKO MEFs = test: Cellular UQ10 levels (quinone quantification by HPLC); assay type: cell-based, mouse; conditions: in combination with UQ10, vs UQ10 alone
Protocol: as §2

Compound: O=C(O)c1ccc(O)cc1O [2,4-DHB, 2,4-dihydroxybenzoic acid]
- survival of Mclk1 KO cells in galactose-containing media (Mclk1 KO cells): allows them to survive in galactose-containing media

Compound: CCCCCOc1ccc(-c2ccc(-c3ccc(C(=O)N[C@H]4C[C@@H](O)[C@@H](O)NC(=O)[C@@H]5[C@@H](O)[C@@H](C)CN5C(=O)[C@H]([C@@H](C)O)NC(=O)[C@H]([C@H](O)[C@@H](O)c5ccc(O)cc5)NC(=O)[C@@H]5C[C@@H](O)CN5C(=O)[C@H]([C@@H](C)O)NC4=O)cc3)cc2)cc1 [AFG, Anidulafungin] ({pTerphenylCO(4''-OnC5H11)}-[Orn(4R-OH,5R-OH)]T[Hyp][hTyr(3S-OH,4S-OH)]T[Pro(3S-OH,4S-Me)]; lactam 1-C)
- surfactant (drop collapse) activity [1]: no drop collapse activity
- cellular uptake of exogenous UQ10 (wildtype MEFs): did not further increase the level of UQ10

Compound: CCCCCOc1ccc(-c2cc(-c3ccc(C(=O)N[C@H]4C[C@@H](O)[C@@H](O)NC(=O)[C@@H]5[C@@H](O)[C@@H](C)CN5C(=O)[C@H]([C@H](O)CC(N)=O)NC(=O)[C@H]([C@H](O)[C@@H](O)c5ccc(O)c(OS(=O)(=O)O)c5)NC(=O)[C@@H]5C[C@@H](O)CN5C(=O)[C@H]([C@@H](C)O)NC4=O)cc3)no2)cc1 [MFG, Micafungin] (X2-[Orn(4R-OH,5R-OH)]T[Hyp][hTyr(3S-OH,4S-OH,3'-OSO3H)][Gln(3R-OH)][Pro(3S-OH,4S-Me)]; lactam 1-C)
- surfactant (drop collapse) activity [1]: no drop collapse activity
- cellular uptake of exogenous UQ10 (wildtype MEFs): did not further increase the level of UQ10

Compound: CCCCCCCC/C=C\CCCCCCCC(=O)ON1C(=O)CC(S(=O)(=O)O)C1=O (centres unmarked) [SSO, sulfo-N-succinimidyl oleate]
- effect on cellular uptake of UQ10 (wildtype MEFs; cells treated with UQ10 or UQ10 combined with McC1 (FIG. 8)): inhibits cellular uptake of UQ10

Compound: CCCCCCCCCCCCCC[N+](C)(C)C.[Br-] [TTAB, Tetradecyl trimethyl ammonium bromide]
- cellular uptake of UQ10 compared to adding UQ10 alone (cells): increased cellular uptake of UQ10

Compound: COC1=C(OC)C(=O)C(C/C=C(\C)CC/C=C(\C)CC/C=C(\C)CC/C=C(\C)CC/C=C(\C)CC/C=C(\C)CC/C=C(\C)CC/C=C(\C)CCC=C(C)C)=C(C)C1=O [UQ9, ubiquinone-9]
- rescue from galactose-induced cell death by UQ supplementation (Pdss2/Mclk1 DKO cells [2]; if provided at a sufficient amount): sufficient to rescue them from galactose-induced cell death

- solubilization power for UQ compared to McC1 [5]: lower solubilization power than McC1
- water solubility of UQ10 in the presence of the compound [5]: increased
- surfactant (drop collapse) activity [1]: potent surfactant activity
Compound: CC(C)CCCCCCCCC[C@@H]1CC(=O)N[C@@H](CCC(=O)O)C(=O)N[C@@H](CC(C)C)C(=O)N[C@H](CC(C)C)C(=O)N[C@@H](C(C)C)C(=O)N[C@@H](CC(=O)O)C(=O)N[C@H](CC(C)C)C(=O)N[C@@H](CC(C)C)C(=O)O1 [surfactin] (HELM PEPTIDE1{E.L.[dL].V.D.[dL].L}|CHEM1{[CC(C)CCCCCCCCC[C@H](CC(=O)[*:1])O[*:2]]}$PEPTIDE1,CHEM1,1:R1-1:R1|PEPTIDE1,CHEM1,7:R2-1:R2$$$V2.0)
- UQ uptake into mitochondria compared to McC1 ([3]; FIG. 17C right panel): less stimulating action on UQ uptake into mitochondria
- uptake of exogenous UQ10 into mitochondria ([3]; in combination with UQ10, vs UQ10 alone): augmented uptake of UQ into mitochondria
- mitochondrial respiration (OCR) compared with UQ10 treatment alone (Pdss2/Mclk1 DKO cells [4]): Higher respiration rates
- viability rescue of DKO cells (Pdss2/Mclk1 DKO cells [2]; 10 μM surfactin with a small amount of UQ10 (FIG. 17D)): full viability rescue
- survival of DKO cells in galactose medium (Pdss2/Mclk1 DKO cells [2]; compound by itself, no UQ10 added): no effect
- cellular uptake of exogenous UQ10 (Pdss2/Mclk1 DKO MEFs): improves UQ10 uptake into cells

Compound: Benzalkonium chloride [BAC]
- cellular uptake of UQ10 compared to adding UQ10 alone (cells): increased cellular uptake of UQ10

- solubilization of UQ10 in water by the compound [5]: improve the water solubility of UQ10
Compound: Saponins

Compound: lipopeptide detergent-12 [LPD-12]
- solubilization of UQ10 in water by the compound [5]: increases the water solubilization of UQ10
